Assay results reported in ChEMBL document CHEMBL5390242, “Design, Synthesis, and Antitumor Efficacy of Substituted 2-Amino[1,2,4]triazolopyrimidines and Related Heterocycles as Dual Inhibitors for Microtubule Polymerization and Janus Kinase 2” (J Med Chem, 2023).
Active and inactive are the calls of the source. No cut-off for these calls is given here.

Tests used:
MCF7 = assay: cells; settings: Homo sapiens, MCF7, 48 h
Description: Antiproliferative activity against human MCF7 cells assessed as cell growth inhibition incubated for 48 hrs by MTT assay

A549 [1] = assay: Induction of cell cycle arrest in human A549 cells assessed as accumulation of cells at G2/M phase at 20 nM incubated for 24 hrs by PI/RNase staining based flow cytometry analysis; assay type: functional
A549 [2] = assay: Induction of apoptosis in human A549 cells assessed as late apoptotic cells at 10 nM incubated for 24 hrs by Annexin V-FITC/PI staining based flow cytometry (reference value: 1.72 %); assay type: functional
A549 [3] = assay: Induction of apoptosis in human A549 cells assessed as necrotic cells at 5 nM incubated for 24 hrs by Annexin V-FITC/PI staining based flow cytometry (reference value: 0.67 %); assay type: functional
A549 [4] = assay: Antitumor activity against human A549 cells xenografted in Balb/c mouse assessed as tumor size at 50 mg/kg,ip administration measured after 31 days; assay type: functional; settings: time 31 day
[5] = Cmax in CD-1 mouse at 10 mg/kg,ip measured upto 24 hrs by HPLC-MS/MS analysis; assay type: ADME, organism-based; parameters: time < 24 hrs, dose 10 mg/kg, route ip; settings: in vivo
A549 [6] = assay: Induction of mitochondrial membrane potential loss in human A549 cells by measuring green fluorescence at 20 nM incubated for 16 hrs by JC-1 staining based flow cytometry analysis (reference value: 0.7 %); assay type: functional
[7] = Acute toxicity in C57BL/6 mouse assessed as maximum tolerated dose administered intravenously for 5 consecutive days; settings: in vivo, route iv
A549 [8] = assay: Induction of mitochondrial membrane potential loss in human A549 cells by measuring green fluorescence at 10 nM incubated for 16 hrs by JC-1 staining based flow cytometry analysis (reference value: 0.7 %); assay type: functional
A549 [9] = assay: Induction of apoptosis in human A549 cells at 10 uM incubated for 24 hrs by Annexin V-FITC/PI staining based flow cytometry; assay type: functional
A549 [10] = assay: Induction of apoptosis in human A549 cells assessed as late apoptotic cells at 20 nM incubated for 24 hrs by Annexin V-FITC/PI staining based flow cytometry (reference value: 1.72 %); assay type: functional
A549 [11] = assay: Induction of apoptosis in human A549 cells assessed as reduction of mitochondrial membrane potential at 5 to 20 nM incubated for 16 hrs by JC-1 staining based fluorescence microscopy; assay type: functional, cell-based; settings: dose 5-20 nM
[12] = AUC (0 to t) in CD-1 mouse assessed as AUC (0 to t) of metabolite at 10 mg/kg,ip measured upto 24 hrs by HPLC-MS/MS analysis; assay type: ADME, organism-based; parameters: dose 10 mg/kg, time < 24 hrs, route ip; settings: in vivo
[13] = AUC (0 to t) in CD-1 mouse at 1 mg/kg,iv measured upto 24 hrs by HPLC-MS/MS analysis; assay type: ADME, organism-based; parameters: dose 1 mg/kg, time < 24 hrs, route iv; settings: in vivo
Tubulin = Tubulin (Sus scrofa, UniProt P02554+P02550); assay: Inhibition of porcine brain tubulin polymerization measured for 30 mins in presence of GTP by microplate reader assay; assay type: tissue-based
Tubulin (Homo sapiens) = Tubulin (Homo sapiens) (UniProt P68371+Q9H4B7+P0DPH7+P68366+Q13509+Q71U36+P04350+Q3ZCM7+P07437+P68363+Q9BQE3+Q6PEY2+Q13885+Q9BVA1+Q9BUF5); assay: Disruption of microtubule assembly in human A549 cells at 1 uM incubated for 6 hrs by Hoechst33342 staining based immunofluorescence analysis; assay type: cell-based
[14] = Oral bioavailability in CD-1 mouse at 10 mg/kg,ip measured upto 24 hrs by HPLC-MS/MS analysis; assay type: ADME, organism-based; settings: in vivo
[15] = target: Tyrosine-protein kinase JAK3 (Homo sapiens, UniProt P52333)
Sequence of Tyrosine-protein kinase JAK3 (P52333 whole entry): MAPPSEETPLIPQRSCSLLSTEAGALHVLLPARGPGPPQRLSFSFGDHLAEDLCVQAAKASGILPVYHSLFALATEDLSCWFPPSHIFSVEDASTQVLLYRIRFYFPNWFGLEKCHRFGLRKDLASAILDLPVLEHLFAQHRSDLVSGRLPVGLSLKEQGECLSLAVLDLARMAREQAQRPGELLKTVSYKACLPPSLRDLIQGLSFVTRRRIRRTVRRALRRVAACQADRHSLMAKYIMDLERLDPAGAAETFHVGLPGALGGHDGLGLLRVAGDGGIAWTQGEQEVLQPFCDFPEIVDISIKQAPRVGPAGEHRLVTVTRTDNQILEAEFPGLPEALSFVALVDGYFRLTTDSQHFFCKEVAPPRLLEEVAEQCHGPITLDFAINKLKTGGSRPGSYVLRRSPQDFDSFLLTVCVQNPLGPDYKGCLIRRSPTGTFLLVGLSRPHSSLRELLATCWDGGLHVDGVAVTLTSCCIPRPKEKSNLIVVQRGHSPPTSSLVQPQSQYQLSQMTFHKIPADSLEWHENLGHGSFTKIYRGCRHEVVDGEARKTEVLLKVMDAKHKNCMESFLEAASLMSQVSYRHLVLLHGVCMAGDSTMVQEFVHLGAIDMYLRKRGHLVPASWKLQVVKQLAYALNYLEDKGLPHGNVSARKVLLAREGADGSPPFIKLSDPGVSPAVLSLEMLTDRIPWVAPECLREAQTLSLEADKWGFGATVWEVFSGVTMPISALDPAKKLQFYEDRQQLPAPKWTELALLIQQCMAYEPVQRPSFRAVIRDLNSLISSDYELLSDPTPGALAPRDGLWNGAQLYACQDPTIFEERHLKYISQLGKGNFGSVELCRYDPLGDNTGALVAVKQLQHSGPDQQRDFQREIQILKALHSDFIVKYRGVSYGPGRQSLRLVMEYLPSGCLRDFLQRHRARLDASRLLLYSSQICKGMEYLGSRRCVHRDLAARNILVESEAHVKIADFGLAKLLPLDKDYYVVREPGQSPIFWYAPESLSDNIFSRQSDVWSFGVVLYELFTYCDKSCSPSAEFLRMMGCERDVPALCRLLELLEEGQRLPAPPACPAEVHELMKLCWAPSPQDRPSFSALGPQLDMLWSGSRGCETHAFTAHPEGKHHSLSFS
Description: Inhibition of JAK3 (unknown origin) using Poly-(Glu,Tyr 4:1) peptide as substrate in presence of ATP by ADP-Glo reagent based assay

HepG2 = assay: Cytotoxicity against human HepG2 cells assessed as cell growth inhibition incubated for 48 hrs by MTT assay; assay type: functional, cell-based; settings: HepG2, 48 h
A549 [16] = assay: Induction of apoptosis in human A549 cells assessed as early apoptotic cells at 10 nM incubated for 24 hrs by Annexin V-FITC/PI staining based flow cytometry (reference value: 4.61 %); assay type: functional
[17] = target: Tyrosine-protein kinase JAK2 (Homo sapiens, UniProt O60674); assay: Inhibition of JAK2 (unknown origin) using Poly-(Glu,Tyr 4:1) peptide as substrate in presence of ATP by ADP-Glo reagent based assay
Sequence of Tyrosine-protein kinase JAK2 (O60674 whole entry): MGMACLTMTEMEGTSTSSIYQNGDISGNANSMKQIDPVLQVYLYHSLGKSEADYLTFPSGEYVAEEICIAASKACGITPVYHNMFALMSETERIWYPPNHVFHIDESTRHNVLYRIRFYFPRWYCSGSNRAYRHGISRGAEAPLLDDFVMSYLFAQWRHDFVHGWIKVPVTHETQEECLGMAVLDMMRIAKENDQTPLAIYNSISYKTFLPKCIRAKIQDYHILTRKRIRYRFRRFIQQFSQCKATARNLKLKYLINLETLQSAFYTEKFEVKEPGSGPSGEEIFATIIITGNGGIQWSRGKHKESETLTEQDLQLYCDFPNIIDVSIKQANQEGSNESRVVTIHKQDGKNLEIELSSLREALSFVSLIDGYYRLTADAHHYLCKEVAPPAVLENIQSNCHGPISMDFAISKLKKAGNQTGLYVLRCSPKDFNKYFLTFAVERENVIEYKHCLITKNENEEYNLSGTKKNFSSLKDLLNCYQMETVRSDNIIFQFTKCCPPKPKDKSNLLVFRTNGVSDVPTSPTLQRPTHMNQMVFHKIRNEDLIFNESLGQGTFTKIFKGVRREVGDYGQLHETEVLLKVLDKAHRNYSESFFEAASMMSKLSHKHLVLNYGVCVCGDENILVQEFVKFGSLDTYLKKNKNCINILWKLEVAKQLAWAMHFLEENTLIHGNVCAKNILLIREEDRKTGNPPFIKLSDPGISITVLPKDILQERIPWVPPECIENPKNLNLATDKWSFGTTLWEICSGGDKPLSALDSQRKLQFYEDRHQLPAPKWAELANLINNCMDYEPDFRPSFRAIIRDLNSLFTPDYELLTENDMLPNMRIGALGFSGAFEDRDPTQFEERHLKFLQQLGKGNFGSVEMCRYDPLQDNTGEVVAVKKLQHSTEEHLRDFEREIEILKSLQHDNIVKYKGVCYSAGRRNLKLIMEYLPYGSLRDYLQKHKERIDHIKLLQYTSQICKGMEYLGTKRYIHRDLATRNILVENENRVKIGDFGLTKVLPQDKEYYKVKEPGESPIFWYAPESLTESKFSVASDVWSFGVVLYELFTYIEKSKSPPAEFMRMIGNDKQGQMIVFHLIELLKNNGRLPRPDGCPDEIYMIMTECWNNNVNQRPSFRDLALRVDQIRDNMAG

[18] = Cmax in CD-1 mouse at 1 mg/kg,iv measured upto 24 hrs by HPLC-MS/MS analysis; assay type: ADME, organism-based; parameters: dose 1 mg/kg, time < 24 hrs, route iv; settings: in vivo
[19] = MRT (0 to infinity) in CD-1 mouse assessed as MRT (0 to infinity) of metabolite at 10 mg/kg,ip measured upto 24 hrs by HPLC-MS/MS analysis; assay type: ADME, organism-based; settings: in vivo
[20] = Antiproliferative activity against Chinese hamster CHO-K1 cells assessed as cell growth inhibition incubated for 48 hrs by MTT assay; assay type: toxicity, cell-based, Cricetulus griseus
[21] = AUC (0 to infinity) in CD-1 mouse at 1 mg/kg,iv measured upto 24 hrs by HPLC-MS/MS analysis; assay type: ADME, organism-based; parameters: dose 1 mg/kg, time < 24 hrs, route iv; settings: in vivo
A549 [22] = assay: Antiproliferative activity against human A549 cells assessed as cell growth inhibition incubated for 48 hrs by MTT assay; assay type: functional, cell-based; settings: A549, 48 h
A549 [23] = assay: Induction of cell cycle arrest in human A549 cells assessed as accumulation of cells at G2/M phase at 10 nM incubated for 24 hrs by PI/RNase staining based flow cytometry analysis; assay type: functional
A549 [24] = assay: Induction of apoptosis in human A549 cells assessed as viable cells at 5 nM incubated for 24 hrs by Annexin V-FITC/PI staining based flow cytometry (reference value: 93 %); assay type: functional; settings: read-out: Activity
A549 [25] = assay: Induction of apoptosis in human A549 cells assessed as early apoptotic cells at 5 nM incubated for 24 hrs by Annexin V-FITC/PI staining based flow cytometry (reference value: 4.61 %); assay type: functional
A549 [26] = assay: Induction of apoptosis in human A549 cells assessed as necrotic cells at 10 nM incubated for 24 hrs by Annexin V-FITC/PI staining based flow cytometry (reference value: 0.67 %); assay type: functional
[27] = MRT (0 to infinity) in CD-1 mouse at 10 mg/kg,ip measured upto 24 hrs by HPLC-MS/MS analysis; assay type: ADME, organism-based; settings: in vivo
HCT-8 = assay: Antiproliferative activity against human HCT-8 cells assessed as cell growth inhibition incubated for 48 hrs by MTT assay; assay type: functional, cell-based; settings: HCT-8, 48 h
A549 [28] = assay: Induction of mitochondrial membrane potential loss in human A549 cells by measuring red fluorescence at 10 nM incubated for 16 hrs by JC-1 staining based flow cytometry analysis (reference value: 99.3 %); assay type: functional
[29] = Half life in CD-1 mouse assessed as half life of metabolite at 10 mg/kg,ip measured upto 24 hrs by HPLC-MS/MS analysis; assay type: ADME, organism-based; settings: in vivo
[30] = target: Tyrosine-protein kinase JAK1 (Homo sapiens, UniProt P23458); assay: Inhibition of JAK1 (unknown origin) using Poly-(Glu,Tyr 4:1) peptide as substrate in presence of ATP by ADP-Glo reagent based assay
Sequence of Tyrosine-protein kinase JAK1 (P23458 whole entry): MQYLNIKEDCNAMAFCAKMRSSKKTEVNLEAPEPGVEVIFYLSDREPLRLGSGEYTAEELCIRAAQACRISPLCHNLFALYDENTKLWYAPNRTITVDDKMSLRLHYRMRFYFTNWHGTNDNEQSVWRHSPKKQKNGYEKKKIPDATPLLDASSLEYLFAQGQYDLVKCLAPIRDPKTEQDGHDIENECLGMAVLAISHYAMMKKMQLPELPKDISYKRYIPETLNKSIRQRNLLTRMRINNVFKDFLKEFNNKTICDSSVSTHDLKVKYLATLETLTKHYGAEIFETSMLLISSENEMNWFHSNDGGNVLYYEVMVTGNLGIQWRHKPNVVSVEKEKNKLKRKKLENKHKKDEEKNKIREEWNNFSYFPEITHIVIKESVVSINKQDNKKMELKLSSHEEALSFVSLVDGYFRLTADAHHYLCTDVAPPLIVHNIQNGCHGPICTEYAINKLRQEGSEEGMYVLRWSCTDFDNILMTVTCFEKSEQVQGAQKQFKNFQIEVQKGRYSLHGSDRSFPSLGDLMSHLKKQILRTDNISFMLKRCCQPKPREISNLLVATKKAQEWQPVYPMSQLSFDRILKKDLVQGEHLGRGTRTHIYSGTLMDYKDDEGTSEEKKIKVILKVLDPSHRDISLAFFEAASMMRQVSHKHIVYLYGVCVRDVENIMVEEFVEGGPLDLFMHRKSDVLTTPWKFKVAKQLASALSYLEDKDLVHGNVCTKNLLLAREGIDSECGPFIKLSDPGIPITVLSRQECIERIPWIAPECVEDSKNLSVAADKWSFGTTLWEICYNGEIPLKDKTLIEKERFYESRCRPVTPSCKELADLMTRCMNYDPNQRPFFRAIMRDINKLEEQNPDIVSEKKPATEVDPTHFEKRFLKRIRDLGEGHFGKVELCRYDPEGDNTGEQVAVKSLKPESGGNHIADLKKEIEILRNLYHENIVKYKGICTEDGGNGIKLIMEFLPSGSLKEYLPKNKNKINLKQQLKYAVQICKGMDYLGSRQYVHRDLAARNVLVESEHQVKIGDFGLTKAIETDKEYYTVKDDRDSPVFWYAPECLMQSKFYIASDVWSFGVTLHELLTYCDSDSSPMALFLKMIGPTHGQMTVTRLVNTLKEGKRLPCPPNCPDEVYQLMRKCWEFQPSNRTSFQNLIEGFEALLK

A549 [31] = assay: Induction of apoptosis in human A549 cells assessed as increase in intracellular ROS level at 5 to 20 nM incubated for 16 hrs by DCFH-DA staining based fluorescence microscopy; assay type: functional, cell-based; settings: dose 5-20 nM
HT-29 = assay: Antiproliferative activity against human HT-29 cells assessed as cell growth inhibition incubated for 48 hrs by MTT assay; assay type: functional, cell-based; settings: HT-29, 48 h

## COc1cc(-c2nccc3nc(Nc4cccc5[nH]ccc45)nn23)cc(OC)c1OC
MCF7
  IC50: 0.018 µM
A549 [1]
  Activity: 91.5%
A549 [2]
  Activity: 14.7%
A549 [3]
  Activity: 0.21%
A549 [4]
  Activity: 315.8 mm3
[5]
  Cmax: 0.158 µg/mL
A549 [6]
  Activity: 44.1%
[7]
  MTD at 5 days: 100 mg/kg
A549 [8]
  Activity: 15.4%
A549 [9]
  Activity: 40.6%
A549 [10]
  Activity: 50.8%
A549 [11]
  Activity: Active
[12]
  AUCt: 2.5347 µg·h/mL
[13]
  AUC(0-t) at 24 h: 0.363 µg·h/mL
Tubulin
  IC50: 1.3 µM
Tubulin (Homo sapiens)
  Activity: Active
[14]
  bioavailability: 15.4%
[15]
  IC50: 12.2 µM
HepG2
  IC50: 0.0518 µM
A549 [16]
  Activity: 27.3%
[17]
  IC50: 0.074 µM
[18]
  Cmax: 0.117 µg/mL
[19]
  MRT: 4 h
[20]
  IC50 at 48 h: 0.13 µM
[21]
  AUC(0-inf): 0.39 µg·h/mL
A549 [22]
  IC50: 0.008 µM
A549 [23]
  Activity: 32.9%
A549 [24]
  viability at 0.005 µM: 90.5%
A549 [25]
  Activity: 7.51%
A549 [26]
  Activity: 2.6%
[27]
  MRT inf: 5.6 h
HCT-8
  IC50: 0.034 µM
A549 [28]
  Activity: 73.6%
[29]
  t1/2: 5.3 h
[30]
  IC50: > 20 µM
A549 [31]
  Activity: Active
HT-29
  IC50: 0.027 µM
